Assay results as given in patent US20220304950A1, “[…] THE TREATMENT OF PATIENTS WITH MAJOR DEPRESSIVE DISORDER, INCLUDING SUICIDALITY” (JANSSEN PHARMACEUTICALS, INC., priority 2019, published 2022).

Test system: adult patients with MDD assessed to be at imminent risk for suicide
Assay: Adverse events (TEAEs, SAEs), Study 1 (Example 4)
Protocol: This is a randomized, double-blind, placebo-controlled, multicenter study to evaluate the efficacy of intranasal esketamine 84 mg compared with intranasal placebo in addition to comprehensive standard of care in reducing the symptoms of MDD, including suicidal ideation, in adult male and female patients who were assessed to be at imminent risk for suicide.
The study consisted of a screening evaluation performed within 48 hours prior to the Day 1 intranasal dose, immediately followed by a 25-day double-blind treatment phase (Day 1 to 25), and a 65-day follow-up phase (Day 26 to Day 90). The total study duration for each subject was approximately 13 weeks.
The study consisted of a screening evaluation performed within 24 to 48 hours prior to the Day 1 dose, immediately followed by a 25-day double-blind treatment phase (Day 1 to 25) with twice-weekly dosing sessions, and a 9-week follow up phase (Day 26 to Day 90). All participants received comprehensive SOC, including in-patient psychiatric hospitalization and the initiation or optimization of standard antidepressant medication (determined by the treating physician based on clinical judgment and practice guidelines).

[1] = Esk 84 mg + SOC, double-blind phase
[2] = Esk 84 mg + SOC, double-blind phase, listed as ESK
[3] = Esk 84 mg + SOC, double-blind phase, listed as Esk
[4] = Esk 84 mg + SOC, follow-up phase

CN[C@]1(c2ccccc2Cl)CCCCC1=O [esketamine, (S)-2-(2-chlorophenyl)-2-(methylamino)cyclohexanone]
SAEs: depression-related events, number (ESK+SOC, follow-up phase): 3 | SAEs: suicidal ideation-related events, number (ESK+SOC, follow-up phase): 7 | Serious TEAE Aggression, subjects n [1]: 0 | Serious TEAE Depression suicidal, subjects % [1]: (1.8%) | Serious TEAE Depression, subjects % [1]: (0.9%) | Serious TEAE Depression, subjects n [1]: 1 | Serious TEAE Diabetic ketoacidosis, subjects % [1]: (0.9%) | Serious TEAE Diabetic ketoacidosis, subjects n [1]: 1 | Serious TEAE Hepatobiliary disorders, subjects n [1]: 0 | Serious TEAE Hypertransaminasaemia, subjects n [1]: 0 | Serious TEAE Metabolism and nutrition disorders, subjects % [1]: (0.9%) | Serious TEAE Metabolism and nutrition disorders, subjects n [1]: 1 | Serious TEAE Psychiatric disorders, subjects n [1]: 3 | Serious TEAE Suicidal ideation, subjects n [1]: 0 | Serious TEAE Suicide attempt, subjects % [1]: (0.9%) | Serious TEAE Suicide attempt, subjects n [1]: 1 | Subjects with 1 or more TEAEs, % [1]: 88.5% | Subjects with related TEAEs, % [1]: (79.6%) | Subjects with related severe TEAEs, % [1]: (6.2%) | Subjects with serious TEAEs, % [1]: 3.5% | TEAE Anxiety, subjects % [1]: (5.3%) | TEAE Anxiety, subjects n [1]: 6 | TEAE Blood pressure increased, subjects % [1]: (16.8%) | TEAE Blood pressure increased, subjects n [1]: 19 | TEAE Constipation, subjects % [1]: (13.3%) | TEAE Constipation, subjects n [1]: 15 | TEAE Dissociation, subjects % [1]: 29.2% | TEAE Dissociation, subjects n [1]: 33 | TEAE Dizziness postural, subjects % [1]: (5.3%) | TEAE Dizziness postural, subjects n [1]: 6 | TEAE Dizziness, subjects % [1]: 35.4% | TEAE Dizziness, subjects n [1]: 40 | TEAE Dysgeusia, subjects n [1]: 16 | TEAE Ear and labyrinth disorders, subjects % [1]: (8.0%) | TEAE Ear and labyrinth disorders, subjects n [1]: 9 | TEAE Eye disorders, subjects % [1]: (11.5%) | TEAE Eye disorders, subjects n [1]: 13 | TEAE Gastrointestinal disorders, subjects % [1]: (38.1%) | TEAE Gastrointestinal disorders, subjects n [1]: 43 | TEAE Headache, subjects n [1]: 21 | TEAE Hypoaesthesia, subjects % [1]: (7.1%) | TEAE Hypoaesthesia, subjects n [1]: 8 | TEAE Insomnia, subjects % [1]: (6.2%) | TEAE Insomnia, subjects n [1]: 7 | TEAE Investigations, subjects % [1]: (24.8%) | TEAE Investigations, subjects n [1]: 28 | TEAE Nausea, subjects % [1]: 20.4% | TEAE Nausea, subjects n [1]: 23 | TEAE Nervous system disorders, subjects % [1]: (68.1%) | TEAE Nervous system disorders, subjects n [1]: 77 | TEAE Psychiatric disorders, subjects % [1]: (45.1%) | TEAE Psychiatric disorders, subjects n [1]: 51 | TEAE Sedation, subjects % [1]: (6.2%) | TEAE Sedation, subjects n [1]: 7 | TEAE Somnolence, subjects n [1]: 21 | TEAE Vertigo, subjects % [1]: (6.2%) | TEAE Vertigo, subjects n [1]: 7 | TEAE Vision blurred, subjects % [1]: (8.8%) | TEAE Vision blurred, subjects n [1]: 10 | TEAE Vomiting, subjects % [1]: (7.1%) | TEAE Vomiting, subjects n [1]: 8 | TEAE dysgeusia, subjects % [1]: (14.2%) | TEAE headache, subjects % [1]: (18.6%) | TEAE leading to discontinuation: Aggression, subjects n [1]: 0 | TEAE leading to discontinuation: Atrioventricular block first degree, subjects n [1]: 0 | TEAE leading to discontinuation: Blood pressure diastolic increased, subjects n [1]: 0 | TEAE leading to discontinuation: Blood pressure increased, subjects % [1]: 0.9% | TEAE leading to discontinuation: Blood pressure increased, subjects n [1]: 1 | TEAE leading to discontinuation: Cardiac disorders, subjects n [1]: 0 | TEAE leading to discontinuation: Confusional state, subjects % [1]: 0.9% | TEAE leading to discontinuation: Confusional state, subjects n [1]: 1 | TEAE leading to discontinuation: Dissociation, subjects % [1]: 0.9% | TEAE leading to discontinuation: Dissociation, subjects n [1]: 1 | TEAE leading to discontinuation: Dizziness, subjects % [1]: 0.9% | TEAE leading to discontinuation: Dizziness, subjects n [1]: 1 | TEAE leading to discontinuation: Hallucination, visual, subjects % [1]: 0.9% | TEAE leading to discontinuation: Hallucination, visual, subjects n [1]: 1 | TEAE leading to discontinuation: Headache, subjects % [1]: 0.9% | TEAE leading to discontinuation: Headache, subjects n [1]: 1 | TEAE leading to discontinuation: Hepatobiliary disorders, subjects n [1]: 0 | TEAE leading to discontinuation: Hypertransaminasaemia, subjects n [1]: 0 | TEAE leading to discontinuation: Hypoaesthesia, subjects % [1]: 0.9% | TEAE leading to discontinuation: Hypoaesthesia, subjects n [1]: 1 | TEAE leading to discontinuation: Investigations, subjects % [1]: 0.9% | TEAE leading to discontinuation: Investigations, subjects n [1]: 1 | TEAE leading to discontinuation: Nervous system disorders, subjects % [1]: 2.7% | TEAE leading to discontinuation: Nervous system disorders, subjects n [1]: 3 | TEAE leading to discontinuation: Pharyngeal hypoaesthesia, subjects % [1]: 0.9% | TEAE leading to discontinuation: Pharyngeal hypoaesthesia, subjects n [1]: 1 | TEAE leading to discontinuation: Psychiatric disorders, subjects % [1]: 2.7% | TEAE leading to discontinuation: Psychiatric disorders, subjects n [1]: 3 | TEAE leading to discontinuation: Respiratory, thoracic and mediastinal disorders, subjects % [1]: 0.9% | TEAE leading to discontinuation: Respiratory, thoracic and mediastinal disorders, subjects n [1]: 1 | TEAE leading to discontinuation: Sedation, subjects % [1]: 0.9% | TEAE leading to discontinuation: Sedation, subjects n [1]: 1 | TEAE leading to discontinuation: Somnolence, subjects % [1]: 0.9% | TEAE leading to discontinuation: Somnolence, subjects n [1]: 1 | TEAE leading to discontinuation: Suicidal ideation, subjects n [1]: 0 | TEAE somnolence, subjects % [1]: (18.6%) | Serious TEAE Depression suicidal, subjects n [2]: 1 | Serious TEAE Psychiatric disorders, subjects % [2]: < 5% | Subjects with severe TEAEs, % [2]: 8.8% | Serious TEAE Depression suicidal, subjects n [3]: 2 | Serious TEAE Psychiatric disorders, subjects % [3]: (2.7%) | Subjects with 1 or more TEAEs, % [3]: (88.5%) | Subjects with serious TEAEs, % [3]: (3.5%) | Subjects with severe TEAEs, % [3]: (8.8%) | TEAE Dissociation, subjects % [3]: (29.2%) | TEAE Dizziness, subjects % [3]: (35.4%) | TEAE Nausea, subjects % [3]: (20.4%) | Subjects with TEAEs leading to discontinuation of study agent, % (Esk 84 mg + SOC, double-blind phase, safety set): 4.4% | AE Anxiety, subjects % [4]: (3.0%) | AE Anxiety, subjects n [4]: 3 | AE Depression, subjects % [4]: (8.9%) | AE Depression, subjects n [4]: 9 | AE Headache, subjects % [4]: (5.9%) | AE Headache, subjects n [4]: 6 | AE Nervous system disorders, subjects % [4]: (11.9%) | AE Nervous system disorders, subjects n [4]: 12 | AE Psychiatric disorders, subjects % [4]: (28.7%) | AE Psychiatric disorders, subjects n [4]: 29 | AE Suicidal ideation, subjects % [4]: (5.0%) | AE Suicidal ideation, subjects n [4]: 5 | SAE Completed suicide, subjects % [4]: (1.0%) | SAE Completed suicide, subjects n [4]: 1 | SAE Depression suicidal, subjects % [4]: (5.0%) | SAE Depression suicidal, subjects n [4]: 5 | SAE Depression, subjects % [4]: (1.0%) | SAE Depression, subjects n [4]: 1 | SAE Depressive symptom, subjects % [4]: (1.0%) | SAE Depressive symptom, subjects n [4]: 1 | SAE Major depression, subjects % [4]: (1.0%) | SAE Major depression, subjects n [4]: 1 | SAE Musculoskeletal and connective tissue disorders, subjects n [4]: 0 | SAE Psychiatric disorders, subjects % [4]: (12.9%) | SAE Psychiatric disorders, subjects n [4]: 13 | SAE Rhabdomyolysis, subjects n [4]: 0 | SAE Suicidal ideation, subjects % [4]: (2.0%) | SAE Suicidal ideation, subjects n [4]: 2 | SAE Suicide attempt, subjects % [4]: (3.0%) | SAE Suicide attempt, subjects n [4]: 3 | Subjects with 1 or more AEs, % [4]: (48.5%) | Subjects with AEs leading to death, % [4]: (1.0%) | Subjects with serious AEs, % [4]: 12.9% | Subjects with severe AEs, % [4]: (5.9%) | Subjects with serious AEs, % (Esk 84 mg + SOC, follow-up phase, listed as Esk): (12.9%) | Overall safety and tolerability (in words) (intranasal ESK+SOC): safe and tolerated
